Among the data in US11897898B2, “Pyridine macrocycle compounds as ASK1 inhibiting agents” (BIOGEN MA INC., priority 2018, dated 2024) are IC50 and Kp uu values, retold here.

Series [1] addresses T1, ASK1 T838 auto phosphorylation (Homo sapiens, UniProt Q99683).
T1 construct: ASK1-V5 tagged full length plasmid; expressed in transfected cells; host or cells: HEK-293T
T1 sequence (Q99683 1-1374): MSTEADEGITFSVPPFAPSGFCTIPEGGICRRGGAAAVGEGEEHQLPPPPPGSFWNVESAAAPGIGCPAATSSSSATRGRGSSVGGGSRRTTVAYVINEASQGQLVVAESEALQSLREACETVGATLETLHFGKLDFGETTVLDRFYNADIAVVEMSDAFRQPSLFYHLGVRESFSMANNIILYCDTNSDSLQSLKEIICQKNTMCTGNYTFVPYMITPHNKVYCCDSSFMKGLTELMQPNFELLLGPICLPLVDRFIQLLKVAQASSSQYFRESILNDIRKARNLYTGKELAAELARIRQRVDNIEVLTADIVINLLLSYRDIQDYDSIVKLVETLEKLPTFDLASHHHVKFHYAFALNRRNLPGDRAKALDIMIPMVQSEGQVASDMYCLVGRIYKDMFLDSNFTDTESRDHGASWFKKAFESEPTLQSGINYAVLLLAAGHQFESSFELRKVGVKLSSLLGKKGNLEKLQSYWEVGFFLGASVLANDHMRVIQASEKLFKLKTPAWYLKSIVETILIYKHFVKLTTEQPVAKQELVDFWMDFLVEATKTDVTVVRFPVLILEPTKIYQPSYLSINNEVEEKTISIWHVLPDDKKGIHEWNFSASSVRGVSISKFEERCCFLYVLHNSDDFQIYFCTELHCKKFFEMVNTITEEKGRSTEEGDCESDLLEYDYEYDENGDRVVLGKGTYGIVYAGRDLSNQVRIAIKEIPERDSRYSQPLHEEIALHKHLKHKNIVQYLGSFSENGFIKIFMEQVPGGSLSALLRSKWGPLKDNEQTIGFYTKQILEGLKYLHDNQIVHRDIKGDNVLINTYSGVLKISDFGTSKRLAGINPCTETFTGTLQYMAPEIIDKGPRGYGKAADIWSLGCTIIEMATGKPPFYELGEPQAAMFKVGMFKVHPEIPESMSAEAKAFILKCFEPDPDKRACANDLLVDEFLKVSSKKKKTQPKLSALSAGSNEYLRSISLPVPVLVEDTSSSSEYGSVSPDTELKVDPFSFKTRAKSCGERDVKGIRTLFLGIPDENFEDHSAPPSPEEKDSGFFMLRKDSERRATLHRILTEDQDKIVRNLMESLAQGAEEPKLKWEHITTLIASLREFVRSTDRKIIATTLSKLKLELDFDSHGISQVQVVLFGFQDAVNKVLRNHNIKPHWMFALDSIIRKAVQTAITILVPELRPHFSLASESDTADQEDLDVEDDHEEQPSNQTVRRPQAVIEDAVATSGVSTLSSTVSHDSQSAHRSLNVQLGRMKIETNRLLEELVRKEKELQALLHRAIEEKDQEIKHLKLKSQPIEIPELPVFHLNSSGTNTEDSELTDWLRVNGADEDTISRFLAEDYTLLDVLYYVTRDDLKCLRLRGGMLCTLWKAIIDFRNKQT
Kind of series: ASK1 (AUTO PHOS T838) assay in HEK-293T cells, MSD format. The class given is cell-based. As to conditions: HEK-293T cells transfected with ASK1-V5, 1 hr compound incubation; class symbols. The method, then:
ASK1 T838 auto phosphorylation was measured in HEK-293T cells using MSD assay format. HEK 293T cells were seeded in 15 cm plates at a density of 18 million cells and 20 mL DMEM with 10% FBS, Pen/Strep media. The plates were incubated at 37° C. overnight. Media on plates was changed to OPTI-MEM, serum free media and cells were transfected with 9 μg of ASK1-V5 tagged full length plasmid using Lipofectamine 2000 (Invitrogen) and the plates were incubated at 37° C. overnight. Cells were trypsinized, counted on Nexcellometer and plated into 96 well tissue culture plates with 100,000 cells/well and 200 μL media. Cells were incubated for 4 hr at 37° C. then ASK1 compounds were added using a HP 300e. Compounds were tested at 20 μM with 3 fold, 10 point dilution points then incubated for 1 hr at 37° C. A lysis buffer (Cell Signaling) was prepared with protease and phosphatase inhibitor and maintained at 4° C. until use. Media from cells was discarded and 120 μL of cold lysis buffer was added to the cells, the plate was shaken 4° C. for 1 hr. Lysate was mixed using Apricot liquid handler; aspirating up and down 16 times at high speed using 50 μL volume. 50 μL of cell lysates were transferred to a pre-coated MSD plates containing mouse anti-V5 antibody (1:500 dilution) and washed 3× with MSD wash buffer (TBST) and blocked with a 3% BSA solution. Plates were then incubated on a plate shaker overnight at 4° C. Plates were washed 3× with MSD wash buffer and 50 μL of rabbit anti-pASK1 T838 antibody was added to the wells and incubated for 2 hr at room temperature on a plate shaker. Plates were then washed and 50 μL of goat anti-rabbit sulfa-tag (1:500 dilution) was added to wells, and incubated for 1 hr at room temperature on a plate shaker. Plates were washed 3× and 150 μL of 2×MSD Read buffer was added to wells. Plates were immediately read on a MSD Instrument Reader where chemoluminecense signal was measured. Data was analyzed using Graph Pad or Genedata, the data was normalized and plotted, % activity versus log of compound concentration. The IC50 values were obtained from a 4 parameter fit.

Series [2] in a line: In vivo brain penetration (rat Kpuu study). As to conditions: brain and plasma (unbound), IV infusion in the carotid artery for four hours, 1 mg/kg, steady state, Kpuu=Cu,b/Cu,p. The method, then:
To evaluate the CNS penetration of the compounds described herein, several compounds were selected for in vivo rat Kpuu studies. In these experiments the compounds are administered via an IV infusion (using N,N-dimethylacetamide:ethanol:1,2-propylene glycol:water in a 1:1:3:5 ratio as the vehicle) in the carotid artery for a period of four hours (1 mg/kg, 0.1 mg/mL) to reach steady state. After this time the plasma and brain concentration levels are quantified, and the values are adjusted by the measured protein binding in plasma and brain homogenate to calculate the Kpuu (see Di, L.; Kerns, E. H. Blood-Brain Barrier in Drug Discovery (Wiley)) according to the equation below. Kpuu=Cu,b/Cu,p • Wherein: • Cu,b=Unbound concentration in brain (C×fu,b). (C=concentration at steady state; fu,b=fraction unbound in brain) • And in which: Cu,p=Unbound concentration in plasma (C×fu,p). (C=concentration at steady state; fu,p=fraction unbound in plasma)
Plasma and brain protein binding values were generated via the Rapid Equilibrium Dialysis method. The compound of interest was incubated in K2EDTA plasma and brain homogenate (homogenized 1:7 (w:v) in 1×PBS) purchased from BioIVT (Westbury, N.Y.), opposite a buffered compartment of 100 mM Potassium phosphate/150 mM Sodium chloride, pH 7.4, at 1 μM for 4 hr and 6 hr respectively. At the conclusion of incubation samples were taken from both matrix and buffered compartments, matrix-matched using blank buffer and matrix, extracted with acetonitrile, diluted with water, and analyzed utilizing an Agilent RapidFire 365 high-throughput LC coupled with MS/MS detection via an AB Sciex 5500. Free fractions (fu) were then calculated by comparing internal standard/analyte peak-area ratios of matrix and buffered compartments. Cross-species brain protein binding was considered to be equivalent for the purposes of calculating free fraction (see Di, L., et al., (2011a) Species Independence in Brain Tissue Binding Using Brain Homogenates, Drug Metab Dispos 39:1270-1277).
Total drug concentration in plasma and brain tissue was measured via well-established bioanalytical extraction (protein precipitation) and detection methods (LC-MS/MS). Brain tissues were homogenized 1:4 (w:v) with 1×PBS in MP Biomedicals Lysing Matrix D tubes via an MP Biomedicals FastPrep-24™ homogenizer and were then extracted alongside plasma samples by matrix-matching with blank K2EDTA plasma (purchased from BioIVT), followed by protein crash/extraction with acetonitrile, supernatant dry down under nitrogen, and reconstitution with an acidified aqueous/organic mixture before being measured against a calibration curve of the compound of interest prepared in plasma, matrix-matched with blank brain homogenate (generated with brains purchased from BioIVT), and similarly extracted. Reconstituted extracts were then analyzed via LC-MS/MS (AB Sciex 5500) utilizing a binary HPLC setup (Shimadzu LC-20ADvp) and reverse-phase chromatography gradient (ACE 3 C18-AR). Peak area ratios and a 1/x^2 regression fit were used to generate sample concentration values that, combined with plasma and brain protein binding values, were used to generate free drug concentration values and partitioning coefficient (Kpuu).

The next series has as its target T2, ASK1/MAP3K5 (Homo sapiens, UniProt Q99683).
T2 construct: purchased Reaction Biology Corp. (Malvern, Pa.)
T2 sequence (Q99683 1-1374): T1 sequence (Q99683 1-1374)
Kind of series: ASK1 enzyme assay (ASK1/MAP3K5 assay by Reaction Biology Corp., 33P-ATP filter-binding). The conditions noted are these: 20 μM myelin basic protein and 10 μM ATP; class symbols. The class given is biochemical. The method, then: The protein kinase inhibitory activity of the compounds described herein were tested using the ASK1/MAP3K5 assay by Reaction Biology Corp. (Malvern, Pa.). The assay procedure follows (and is also available on the Reaction Biology Corp. website). • Base Reaction Buffer: 20 mM Hepes (pH 7.5), 10 mM MgCl2, 1 mM EGTA, • 0.02% Brij35, 0.02 mg/mL BSA, 0.1 mM Na3VO4, 2 mM DTT, 1% DMSO; • Substrate: 20 μM of myelin basic protein (MBP) and 10 μM ATP; • Protein kinase: ASK1/MAP3K5. • Reaction Procedure: • 1. Prepare indicated substrate in freshly prepared Base Reaction Buffer. • 2. Deliver any required cofactors to the substrate solution. • 3. Deliver indicated kinase into the substrate solution and gently mix. • 4. Deliver compounds in DMSO into the kinase reaction mixture by Acoustic; technology (Echo550; nanoliter range), incubate for 20 minutes at room temperature. • 5. Deliver ^33P-ATP (specific activity 10 μCi/μL) into the reaction mixture to initiate the reaction. • 6. Incubate kinase reaction for 2 hours at room temperature. • 7. Reactions are spotted onto P81 ion exchange paper. • 8. Detect kinase activity by filter-binding method.

As to `C[C@H]1CCCOc2ncc(N3CCN(C)CC3)cc2C(=O)Nc2cccc(n2)-c2nncn21` [Compound 10, (S)-10-Methyl-5^5-(4-methylpiperazin-1-yl)-1^4H-6-oxa-3-aza-2(2,6),5(3,2)-dipyridina-1(3,4)-triazolacyclodecaphan-4-one], in series [1], the IC50 (in general, the concentration that inhibits the measured activity by half) is no more than 100 nM. In addition, in series [2], the Kp uu at 4 h is less than 0.1.
As for `Cc1ccc(-c2cnc3c(c2)C(=O)Nc2cccc(n2)-c2nncn2[C@@H](C)CCCO3)cn1` [Compound 19, (S)-10-Methyl-5^5-(6-methylpyridin-3-yl)-1^4H-6-oxa-3-aza-2(2,6),5(3,2)-dipyridina-1(3,4)-triazolacyclodecaphan-4-one], the concentration for half-maximal inhibition (IC50) in series [1] is no more than 100 nM. The compound further yielded a Kp uu at 4 h in series [2] of less than 0.1.
For the compound `COC(C)(C)c1cnc2c(c1)C(=O)Nc1cccc(n1)-c1nncn1[C@@H](C)CCCO2` [Compound 40, (S)-5^5-(2-Methoxypropan-2-yl)-10-methyl-1^4H-6-oxa-3-aza-2(2,6),5(3,2)-dipyridina-1(3,4)-triazolacyclodecaphan-4-one], the values for the IC50 (on ASK1/MAP3K5; in series [1]) were no more than 100 nM and 100 to 1000 nM, respectively.
For `C[C@H]1CCCOc2ncc(OCCN(C)C)cc2C(=O)Nc2cccc(n2)-c2nncn21` [Compound 44, (S)-5^5-(2-(Dimethylamino)ethoxy)-10-methyl-1^4H-6-oxa-3-aza-2(2,6),5(3,2)-dipyridina-1(3,4)-triazolacyclodecaphan-4-one], the IC50 (at ASK1/MAP3K5; in series [1]) was no more than 100 nM in each case.
With `C[C@H]1CCCOc2ncc(C3COC3)cc2C(=O)Nc2cccc(n2)-c2nncn21` [Compound 45, (S)-10-Methyl-5^5-(oxetan-3-yl)-1^4H-6-oxa-3-aza-2(2,6),5(3,2)-dipyridina-1(3,4)-triazolacyclodecaphan-4-one], the IC50 (on ASK1/MAP3K5; in series [1]) was no more than 100 nM throughout.
In the case of `C[C@H]1CCCOc2ncc(C3CN(C(=O)OC(C)(C)C)C3)cc2C(=O)Nc2cccc(n2)-c2nncn21` [Compound 46, tert-Butyl (S)-3-(10-methyl-4-oxo-1^4H-6-oxa-3-aza-2(2,6),5(3,2)-dipyridina-1(3,4)-triazolacyclodecaphane-5^5-yl)azetidine-1-carboxylate], the IC50 (at ASK1/MAP3K5; in series [1]) was no more than 100 nM throughout.
`C[C@H]1CCCOc2ncc(C3CN(C)C3)cc2C(=O)Nc2cccc(n2)-c2nncn21` [Compound 47, (S)-10-Methyl-5^5-(1-methylazetidin-3-yl)-1^4H-6-oxa-3-aza-2(2,6),5(3,2)-dipyridina-1(3,4)-triazolacyclodecaphan-4-one]: the IC50 at ASK1/MAP3K5 was no more than 100 nM; in series [1], 100 to 1000 nM.
